In the oligonucleotide strings, read from the 5' end, every base follows the letter of its sugar. An asterisk marks phosphorothioate; unmarked linkages are phosphodiester. Other units and linkages are bracketed, terminal groups are in braces. A string of capitals states the bases alone. e = 2'-O-(2-methoxyethyl) (MOE); [5mC] = 5-methylcytosine; d = 2'-deoxy (DNA)
Columns and labels:
Type in all cases: cell-based
[1] = system: mouse p38β mRNA; assay: Inhibition of mouse p38β mRNA expression in bEND.3 cells, Northern blot
Description: (§1) bEND.3, a mouse endothelial cell line (gift of Dr. Werner Risau; see Montesano et al., Cell, 1990, 62, 435, and Stepkowski et al., J. Immunol., 1994, 153, 5336) were grown in high-glucose DMEM (Life Technologies, Gaithersburg, Md.) medium containing 10% fetal bovine serum (FBS) and 1% Penicillin/Streptomycinin. Cells were plated at approximately 2×10^5 cells per 100 mm dish. Within 48 hours of plating, the cells were washed with phosphate-buffered saline (Life Technologies). Then, Opti-MEM7 medium containing 3 μg/mL LIPOFECTIN^7 and an appropriate amount of oligonucleotide were added to the cells. As a control, cells were treated with LIPOFECTIN^7 without oligonucleotide under the same conditions and for the same times as the oligonucleotide-treated samples.
(§2) After 4 hours at 37° C., the medium was replaced with high glucose DMEM medium containing 10% FBS and 1% Penicillin/Streptomycinin. The cells were typically allowed to recover overnight (about 18 to 24 hours) before RNA and/or protein assays were performed as described in Example 2. The p38α, p38β and G3PDH probes used were identical to those described in Example 2.
(§3) Rat p38α antisense oligonucleotides were screened in bEND.3 cells for inhibition of p38α and p38β mRNA expression. The concentration of oligonucleotide used was 100 nM. Oligonucleotides 21844 (SEQ ID NO. 47), 21845 (SEQ ID NO. 48), 21872 (SEQ ID NO. 51), 21873 (SEQ ID NO. 52), 21875 (SEQ ID NO. 54), and 21876 (SEQ ID NO.
(§4) Mouse p38β antisense sequences were screened in bEND.3 cells as described in Example 4.

[2] = system: mouse p38α mRNA; assay: Inhibition of mouse p38α mRNA expression in bEND.3 cells, Northern blot
Description: as §1, §2, §3, §4

[3] = system: rat p38α mRNA; assay: Inhibition of rat p38α mRNA expression in A-10 cells, Northern blot; conditions: Rat A-10 cells, 200 nM oligonucleotide, 24 hours
Description: Rat p38α antisense oligonucleotides were screened in Rat A-10 cells. A-10 cells (American Type Culture Collection, Manassas, Va.) were grown in high-glucose DMEM (Life Technologies, Gaithersburg, Md.) medium containing 10% fetal calf serum (FCS). Cells were treated with oligonucleotide as described in Example 2. Oligonucleotide concentration was 200 nM. mRNA was isolated 24 hours after time zero and quantitated by Northern blot as described in Example 2.

[4] = system: IL-6 secretion; assay: IL-6 secretion by IL-1 stimulated bEND.3 cells, ELISA; conditions: DOSE 100, 1 ng/mL mouse IL-1 for 6 hours, 48 hours after oligonucleotide
Description: p38 MAPK antisense oligonucleotides were tested for their ability to reduce IL-6 secretion. bEND.3 cells were cultured and treated as described in Example 4 except that 48 hours after oligonucleotide treatment, cells were stimulated for 6 hours with 1 ng/mL recombinant mouse IL-1 (R&D Systems, Minneapolis, Minn.). IL-6 was measured in the medium using an IL-6 ELISA kit (Endogen Inc., Woburn, Mass.).

[5] = 100 nM rat p38α antisense oligonucleotide
[6] = mouse p38β antisense oligonucleotides, screened as in Example 4

Row | Substance | % p38β mRNA Inhibition [1, 5] | % p38α mRNA EXPRESSION [3] | % p38α mRNA INHIBITION [2, 6] | other results
1 | ToGoCoAoCsCsAsCsAsAsGsCsAsCsCsToGoGoAoG (antisense eTeGe[5mC]eAe[5mC]*d[5mC]*dA*d[5mC]*dA*dA*dG*d[5mC]*dA*d[5mC]*d[5mC]*eTeGeGeAeG) [ISIS 21878] | 10% | 35% |  | % p38α mRNA INHIBITION [2, 5]: 25%
2 | ToAoCoCoAsCsCsGsTsGsTsGsGsCsCsAoCoAoToA (antisense eTeAe[5mC]e[5mC]eA*d[5mC]*d[5mC]*dG*dT*dG*dT*dG*dG*d[5mC]*d[5mC]*eAe[5mC]eAeTeA) [ISIS 100810] |  |  | 1% | 
3 | GoGoAoToGsGsAsCsAsGsAsAsCsAsGsAoAoGoCoA (antisense eGeGeAeTeG*dG*dA*d[5mC]*dA*dG*dA*dA*d[5mC]*dA*dG*eAeAeGe[5mC]eA) [ISIS 21874] | 21% | 22% |  | % p38α mRNA INHIBITION [2, 5]: 38%
4 | ToToAoCoAsGsCsCsAsCsCsTsTsCsTsGoGoCoGoC (antisense eTeTeAe[5mC]eA*dG*d[5mC]*d[5mC]*dA*d[5mC]*d[5mC]*dT*dT*d[5mC]*dT*eGeGe[5mC]eGe[5mC]) [ISIS 100804] |  |  | 18% | % IL-6 INHIBITION [4]: 57%
5 | AoToGoGoAsTsGsTsGsGsCsCsGsGsCsGoToGoAoA (antisense eAeTeGeGeA*dT*dG*dT*dG*dG*d[5mC]*d[5mC]*dG*dG*d[5mC]*eGeTeGeAeA) [ISIS 100806] |  |  | 3% | % p38β mRNA Inhibition [1, 6]: 22%
6 | AoGoGoCoTsAsGsAsGsCsCsCsAsGsGsAoGoCoCoA (antisense eAeGeGe[5mC]eT*dA*dG*dA*dG*d[5mC]*d[5mC]*d[5mC]*dA*dG*dG*eAeGe[5mC]e[5mC]eA) [ISIS 21876] | minimal effects | 61% |  | % p38α mRNA INHIBITION [3]: 39%
7 | GoAoGoCoAsGsGsCsAsGsAsCsTsGsCsCoAoAoGoG (antisense eGeAeGe[5mC]eA*dG*dG*d[5mC]*dA*dG*dA*d[5mC]*dT*dG*d[5mC]*e[5mC]eAeAeGeG) [ISIS 21875] | minimal effects | 26% |  | % p38β mRNA Inhibition ([1]; dose 1 nM): 11%; % p38β mRNA Inhibition ([1]; dose 5 nM): 16%; % p38β mRNA Inhibition ([1]; dose 25 nM): 2%; % p38β mRNA Inhibition ([1]; dose 100 nM (dose response)): 4%; % p38α mRNA INHIBITION ([2]; dose 25 nM): 33%; % p38α mRNA INHIBITION ([2]; dose 100 nM (dose response)): 72%
8 | CoAoGoGoCsCsAsCsAsGsAsCsCsAsGsAoToGoToC (antisense e[5mC]eAeGeGe[5mC]*d[5mC]*dA*d[5mC]*dA*dG*dA*d[5mC]*d[5mC]*dA*dG*eAeTeGeTe[5mC]) [ISIS 100812] |  |  | 17% | % p38β mRNA Inhibition [1, 6]: 36%
9 | AoToCoCoTsCsAsGsCsTsCsGsCsAsGsToCoCoToC (antisense eAeTe[5mC]e[5mC]eT*d[5mC]*dA*dG*d[5mC]*dT*d[5mC]*dG*d[5mC]*dA*dG*eTe[5mC]e[5mC]eTe[5mC]) [ISIS 100809] |  |  | 14% | 
10 | GoCoAoGoAsCsTsGsAsGsCsCsGsTsAsGoGoCoGoC (antisense eGe[5mC]eAeGeA*d[5mC]*dT*dG*dA*dG*d[5mC]*d[5mC]*dG*dT*dA*eGeGe[5mC]eGe[5mC]) [ISIS 100803] |  |  | 18% | 
